This note sets out measurements from ChEMBL document CHEMBL4373715, “Discovery and Biological Evaluations of Halogenated 2,4-Diphenyl Indeno[1,2-b]pyridinol Derivatives as Potent Topoisomerase IIα-Targeted Chemotherapeutic Agents for Breast Cancer” (J Med Chem, 2019).

Molecules are shown by their SMILES. Structures can show the parent of a compound that is named as a salt. Activity calls are given as the source filed them. No cut-off for these calls is given here.

Assay [1] deals with HeLa. Description: Antiproliferative activity against human HeLa cells measured after 72 hrs by EZ-Cytox assay. It is filed as functional, cell-based.
Assay [2] deals with T1, DNA topoisomerase 1 (Homo sapiens) (UniProt P11387).
T1 sequence (whole entry): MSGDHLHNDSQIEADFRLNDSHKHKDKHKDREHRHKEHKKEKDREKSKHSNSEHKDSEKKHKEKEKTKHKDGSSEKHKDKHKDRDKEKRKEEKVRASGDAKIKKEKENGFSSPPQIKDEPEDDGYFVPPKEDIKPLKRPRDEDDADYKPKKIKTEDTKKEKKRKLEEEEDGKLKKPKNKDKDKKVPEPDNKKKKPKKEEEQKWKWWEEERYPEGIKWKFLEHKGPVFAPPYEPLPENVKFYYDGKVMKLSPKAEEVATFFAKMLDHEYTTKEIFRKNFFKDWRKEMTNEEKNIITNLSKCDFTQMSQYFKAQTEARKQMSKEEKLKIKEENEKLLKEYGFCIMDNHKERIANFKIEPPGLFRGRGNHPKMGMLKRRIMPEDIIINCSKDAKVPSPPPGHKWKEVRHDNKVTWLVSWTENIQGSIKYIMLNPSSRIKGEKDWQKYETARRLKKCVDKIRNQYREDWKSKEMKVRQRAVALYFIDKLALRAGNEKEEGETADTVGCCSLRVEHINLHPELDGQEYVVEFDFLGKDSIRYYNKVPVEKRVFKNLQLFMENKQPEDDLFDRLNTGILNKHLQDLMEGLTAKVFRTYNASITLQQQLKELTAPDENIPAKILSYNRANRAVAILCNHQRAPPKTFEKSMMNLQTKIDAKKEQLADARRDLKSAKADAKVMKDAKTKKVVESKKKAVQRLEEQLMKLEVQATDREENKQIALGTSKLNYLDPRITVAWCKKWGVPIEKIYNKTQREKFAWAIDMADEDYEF
Description: Inhibition of recombinant human topoisomerase 1-mediated relaxation of supercoiled pBR322 DNA at 20 uM measured after 30 mins by ethidium bromide staining based agarose gel electrophoresis relative to control.

The target in assay [3] is DNA topoisomerase 2-alpha (Homo sapiens) (UniProt P11388). Description: Inhibition of recombinant human topoisomerase 2alpha-mediated relaxation of supercoiled pBR322 DNA at 20 uM measured after 30 mins by ethidium bromide staining based agarose gel electrophoresis relative to control.
Assay [4] relates to HCT-15. Description: Antiproliferative activity against human HCT15 cells measured after 72 hrs by EZ-Cytox assay. It is filed as functional, cell-based. As to conditions: HCT-15, 72 h.
The target of assay [5] is T1, DNA topoisomerase 1 (Homo sapiens). Description: Inhibition of recombinant human topoisomerase 1-mediated relaxation of supercoiled pBR322 DNA at 100 uM measured after 30 mins by ethidium bromide staining based agarose gel electrophoresis relative to control.
Assay [6] relates to DU-145. Put plainly: Antiproliferative activity against human DU145 cells measured after 72 hrs by EZ-Cytox assay. The conditions noted are these: DU-145, 72 h. It is filed as functional, cell-based.
The subject of assay [7] is T47D. Description: Antiproliferative activity against human T47D cells measured after 72 hrs by EZ-Cytox assay. It is filed as functional, cell-based.
Assay [8] deals with DNA topoisomerase 2-alpha (Homo sapiens) (UniProt P11388). Description: Inhibition of recombinant human topoisomerase 2alpha-mediated relaxation of supercoiled pBR322 DNA at 100 uM measured after 30 mins by ethidium bromide staining based agarose gel electrophoresis relative to control.
In assay [9] the test system is Calf thymus DNA. Description: Inhibition of EtBr binding to calf thymus DNA measured after 30 mins by fluorescence assay. Type of assay: nucleic-acid assay. The conditions noted are these: Bos taurus.
For assay [10], the system named is MDA-MB-231. Description: Antiproliferative activity against human MDA-MB-231 cells measured after 72 hrs by Ez-cytox assay. Type of assay: functional, cell-based. As to conditions: MDA-MB-231, 72 h.
The test system of assay [11] is MDA-MB-436. Description: Antiproliferative activity against human MDA-MB-436 cells measured after 72 hrs by Ez-cytox assay. Type of assay: functional, cell-based. The conditions noted are these: MDA-MB-436, 72 h.
Assay [12] has as its system HCC70. Description: Antiproliferative activity against human HCC70 cells measured after 72 hrs by Ez-cytox assay. It is filed as functional, cell-based. The conditions noted are these: HCC70, 72 h.
For assay [13], the target named is DNA topoisomerase 2-alpha (Homo sapiens) (UniProt P11388). Description: Poison activity at topoisomerase-2 alpha in human T47D cells assessed as stabilization of enzyme-DNA cleavage complex by measuring reduction in topo-2alpha level at 50 uM measured after 2 hrs by Western blot analysis. Type of assay: cell-based. A general note: In western blotting, separated proteins are transferred to a membrane and probed.

Assay [14] relates to T47D. Put plainly: Induction of DNA damage in human T47D cells at 5 to 10 uM measured after 24 hrs by comet assay. It is filed as functional, cell-based.

Chain of DNA topoisomerase 2-alpha (Homo sapiens) (P11388 whole entry): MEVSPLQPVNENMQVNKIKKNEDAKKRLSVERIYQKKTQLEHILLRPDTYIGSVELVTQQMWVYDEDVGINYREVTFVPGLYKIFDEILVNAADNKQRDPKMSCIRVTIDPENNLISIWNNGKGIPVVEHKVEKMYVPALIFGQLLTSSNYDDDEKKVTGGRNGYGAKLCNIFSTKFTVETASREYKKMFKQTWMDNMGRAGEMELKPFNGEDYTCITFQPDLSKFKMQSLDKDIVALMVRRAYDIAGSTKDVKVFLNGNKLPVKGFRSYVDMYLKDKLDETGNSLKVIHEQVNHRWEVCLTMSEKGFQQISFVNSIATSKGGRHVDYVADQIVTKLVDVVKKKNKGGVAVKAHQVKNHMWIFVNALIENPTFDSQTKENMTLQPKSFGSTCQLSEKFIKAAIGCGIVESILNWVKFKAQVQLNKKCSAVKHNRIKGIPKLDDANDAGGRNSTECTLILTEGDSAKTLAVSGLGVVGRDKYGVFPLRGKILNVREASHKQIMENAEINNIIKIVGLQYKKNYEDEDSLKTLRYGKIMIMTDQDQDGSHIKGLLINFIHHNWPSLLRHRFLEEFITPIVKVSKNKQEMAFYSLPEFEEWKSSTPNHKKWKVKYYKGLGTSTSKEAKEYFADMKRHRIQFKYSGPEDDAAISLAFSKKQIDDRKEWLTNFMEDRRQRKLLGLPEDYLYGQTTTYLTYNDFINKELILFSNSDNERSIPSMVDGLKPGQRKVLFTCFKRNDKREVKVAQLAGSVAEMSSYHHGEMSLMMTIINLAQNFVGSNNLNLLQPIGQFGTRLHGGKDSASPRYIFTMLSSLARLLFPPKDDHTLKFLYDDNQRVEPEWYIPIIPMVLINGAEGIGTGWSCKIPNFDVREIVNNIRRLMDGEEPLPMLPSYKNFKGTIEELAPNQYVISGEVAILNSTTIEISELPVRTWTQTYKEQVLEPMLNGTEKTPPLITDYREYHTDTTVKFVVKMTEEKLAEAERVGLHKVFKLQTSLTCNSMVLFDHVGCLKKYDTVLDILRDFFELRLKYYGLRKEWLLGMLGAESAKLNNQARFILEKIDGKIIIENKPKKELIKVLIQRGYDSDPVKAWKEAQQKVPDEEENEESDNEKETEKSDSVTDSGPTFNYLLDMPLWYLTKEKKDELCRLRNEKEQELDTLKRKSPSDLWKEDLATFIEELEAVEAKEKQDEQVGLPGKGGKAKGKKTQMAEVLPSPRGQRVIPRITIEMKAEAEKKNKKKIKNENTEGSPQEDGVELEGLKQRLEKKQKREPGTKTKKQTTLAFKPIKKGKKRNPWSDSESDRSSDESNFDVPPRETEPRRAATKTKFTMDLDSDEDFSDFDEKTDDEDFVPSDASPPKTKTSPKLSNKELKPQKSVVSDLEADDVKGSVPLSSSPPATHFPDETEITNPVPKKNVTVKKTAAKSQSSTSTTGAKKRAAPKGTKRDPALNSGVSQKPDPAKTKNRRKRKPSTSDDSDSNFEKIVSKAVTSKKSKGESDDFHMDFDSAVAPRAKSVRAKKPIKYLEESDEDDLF

Consider `Oc1ccc2c(c1)Cc1c(-c3ccccc3Cl)cc(-c3ccccc3O)nc1-2`, for which the IC50 (commonly the concentration at which inhibition is half-maximal) was found to be 17.9 µM in [1], 3.13 µM in assay [4], 4.43 µM in assay [6] and 3.82 µM in assay [7]. In addition, the inhibition (usually the share of the control response that was lost under treatment) in assay [2] was determined as 7.4%; in assay [3], 3.5%; in assay [5] it was 37%; in [8] it was 55.9%.

For `Oc1cccc(-c2cc(-c3ccccc3C(F)(F)F)nc3c2Cc2c(O)cccc2-3)c1`, the IC50 in assay [1] was found to be 3.79 µM; in [4], 3.39 µM; in assay [6] it was 1.8 µM; in [7], 1.46 µM. Further, the inhibition in assay [2] worked out at 0%; in assay [3], 2.1%; in [5], 65.7%; in assay [8], 89.5%.

For the compound `Oc1ccc(-c2cc(-c3ccc(C(F)(F)F)cc3)nc3c2Cc2c(O)cccc2-3)cc1`, the IC50 in [1] was 6.54 µM; in [4], greater than 50 µM; in [6], 2.11 µM; in assay [7], 2.01 µM. In addition, the inhibition is 0% in [2], 11.1% in assay [3], 32.8% in assay [5] and 91.3% in [8].

As for `Oc1cccc(-c2cc(-c3ccccc3Cl)c3c(n2)-c2c(O)cccc2C3)c1`, the IC50 in assay [1] is 3.64 µM; in [4], 2.43 µM; in assay [6], 3.21 µM; in [7] it was 2.51 µM. Besides, the inhibition in assay [2] was 0.2%; in assay [3], 3.6%; in assay [5], 79.3%; in [8] it was 80.2%.

With `Oc1ccc(-c2cc(-c3ccc(C(F)(F)F)cc3)nc3c2Cc2cc(O)ccc2-3)cc1`, the IC50 in assay [1] is 4.8 µM; in assay [4], 2.63 µM; in [6], 1.14 µM; in assay [7] it was 1.91 µM. Further, the inhibition was 0% in assay [2], 1.1% in assay [3], 87.4% in [5] and 83.2% in [8].

Regarding `Oc1ccc(-c2cc(-c3cccc(C(F)(F)F)c3)nc3c2Cc2cc(O)ccc2-3)cc1`, the IC50 was 4.52 µM in assay [1], 3.47 µM in [4], 1.9 µM in assay [6] and 1.43 µM in assay [7]. The inhibition stood at 0.3% in [2], 4.6% in [3], 55.8% in assay [5] and 88.7% in assay [8].

For the compound `Oc1ccc(-c2cc(-c3ccc(C(F)(F)F)cc3)nc3c2Cc2ccc(O)cc2-3)cc1`, the IC50 in assay [1] is 5.51 µM; in assay [4], 5.03 µM; in assay [6], 2.98 µM; in assay [7], 1.36 µM. Besides, the inhibition in assay [2] was 0%; in assay [3] it was 0.5%; in [5], 100%; in assay [8], 83.1%.

Turning to `Oc1cccc(-c2cc(-c3ccccc3Cl)c3c(n2)-c2cc(O)ccc2C3)c1`, the IC50 in assay [1] worked out at 5 µM; in assay [4], 2.5 µM; in [6], 2.03 µM; in assay [7], 2.91 µM. Besides, the inhibition was determined as 6.3% in [2], 13.8% in [3], 55.9% in [5] and 93.2% in assay [8].

Regarding `Oc1ccc2c(c1)-c1nc(-c3ccccc3O)cc(-c3ccccc3Cl)c1C2`, the IC50 is greater than 50 µM in [1], 7.98 µM in assay [4], 3.99 µM in [6] and 3.28 µM in [7]. Besides, the inhibition worked out at 14.8% in assay [2], 38.2% in assay [3], 59.1% in [5] and 74.1% in assay [8].

With `COc1cc(NS(C)(=O)=O)ccc1Nc1c2ccccc2nc2ccccc12`, in [9], the inhibition result is “Dose-dependent effect”.

`CC[C@@]1(O)C(=O)OCc2c1cc1n(c2=O)Cc2cc3ccccc3nc2-1` [CAMPTOTHECIN]: the IC50 in assay [1] is 0.5 to 1.39 µM; in assay [4] it was 0.049 to 0.35 µM; in [10], 24 µM; in [11] it was 31.9 µM; in assay [12] it was 0.044 µM; in [6] it was 0.05 to 0.81 µM. This compound also gave an IC50 in [7] of 0.25 to 1.98 µM.

`Oc1ccc(-c2cc(-c3ccccc3Cl)c3c(n2)-c2cccc(O)c2C3)cc1`: the IC50 in assay [1] was determined as 3.72 µM; in assay [4], 2.42 µM; in assay [6], 5.84 µM; in [7], 1.73 µM. In addition, the inhibition in [2] is 0%; in assay [3], 13%; in assay [5], 62.9%; in [8], 97%.

`Oc1cccc(-c2cc(-c3ccccc3Cl)c3c(n2)-c2ccc(O)cc2C3)c1`: the IC50 in assay [1] stood at 6.48 µM; in [4] it was 3.82 µM; in assay [6], 2.35 µM; in [7], 2.84 µM. Moreover, the inhibition in assay [2] was 6.3%; in assay [3], 20%; in assay [5], 77.4%; in [8], 91.3%.

On to `COc1cc([C@@H]2c3cc4c(cc3[C@@H](O[C@@H]3O[C@@H]5CO[C@@H](C)O[C@H]5[C@H](O)[C@H]3O)[C@H]3COC(=O)[C@H]23)OCO4)cc(OC)c1O` [ETOPOSIDE], for which the concentration for half-maximal inhibition (IC50) in assay [1] is 4.13 to 9.75 µM; in assay [4] it was 1.27 to 6.97 µM; in [10], greater than 50 µM; in assay [11], 39.4 µM; in [12] (read-out: IC50) it was greater than 50 µM; in [6], 1.15 to 4.49 µM. Also, the IC50 in assay [7] lay in the range of 1.64 to 5.54 µM. In addition, the result in assay [13] and in assay [14] was Active.

On to `COc1cccc2c1C(=O)c1c(O)c3c(c(O)c1C2=O)C[C@@](O)(C(=O)CO)C[C@@H]3O[C@H]1C[C@H](N)[C@H](O)[C@H](C)O1` [DOXORUBICIN HYDROCHLORIDE], for which the IC50 is 0.8 to 4.59 µM in [1]; 0.74 to 2.02 µM in assay [4]; 5.18 µM in assay [10]; 2.03 µM in assay [11]; 1.45 µM in assay [12] (read-out: IC50); 0.87 to 2.96 µM in assay [6]. Besides, in assay [7], the IC50 lay within 0.34 to 1.5 µM.

For `Oc1ccc(-c2cc(-c3ccc(Cl)cc3)nc3c2Cc2c(O)cccc2-3)cc1`, the IC50 in assay [1] is 4.08 µM; in assay [4], 3 µM; in assay [6], 1.88 µM; in assay [7], 1.15 µM. For the same compound, the inhibition in assay [3] is 0%; in [5], 6.7%; in assay [8] it was 59.9%.

Consider `Oc1cccc(-c2cc(-c3cccc(Cl)c3)nc3c2Cc2cc(O)ccc2-3)c1`, for which the IC50 amounted to 5.99 µM in assay [1], 1.62 µM in assay [4], 3.21 µM in [6] and 0.86 µM in assay [7]. Also, the inhibition in assay [3] stood at 37.8%; in [5] it was 0%; in [8], 80.2%.
